Source: patent US20020115723A1, “Cysteine derivatives” (AJINOMOTO CO., INC., priority 1998, published 2002)
“And” between values parts separate entries of the source, which are not always exact repeats. Identical values can stand only once.

Key:
human epidermal cells = experiment: Toxicity to the cultured human epidermal cells seen in the NF-κB / AP-1 activation tests; assay type: cell-based
Protocol: Each of the test compounds was added to a culture plate at a concentration within an extent not causing a damage to the human epidermal cells which had reached the confluent stage in the culture plate. After 18 hours had elapsed, the culture medium was substituted by a phenol red-free medium. The cells were exposed to ultraviolet rays (UVB: 50 mJ/cm^2) from an ultraviolet irradiator “Dermaray M-DMR-80” (ex Toshiba Medical Supply Co., Ltd.). After 4 to 5 hours had elapsed, the cells were collected, and the nucleoprotein was extracted therefrom in a manner known per se in the art. From the resulting nucleoprotein, the activated NF-κB was detected in accordance with the gel shift assay. The amount of the NF-κB was determined by measuring the radioactive value of the NF-κB band with the use of a bioimaging analyzer “BAS 2000” (ex Fuji Film Co., Ltd.).
(§1) In a similar manner to Test Example 1, a nucleoprotein was obtained. Then, the activated AP-1 was detected by the gel shift assay. The radioactive value of the AP-1 band was measured as in Test Example 1, whereby the amount of the AP-1 was determined. The AP-1 activation inhibiting ratio of the test compounds was calculated by the below-described equation (2). The results of the test compounds according to the present invention are shown below in Table 4a, while those of the comparative compounds are shown below in Table 4b.

NF-κB = experiment: Test on the function of inhibiting the activation of NF-κB induced by ultraviolet rays (gel shift assay); assay type: cell-based, human; details: human epidermal cells, UVB 50 mJ/cm^2
Protocol: Test on the Function of Inhibiting the Activation of NF-κB Induced by Ultraviolet Rays.
After 18 hours had elapsed, the culture medium was substituted by a phenol red-free medium. The cells were exposed to ultraviolet rays (UVB: 50 mJ/cm^2) from an ultraviolet irradiator “Dermaray M-DMR-80” (ex Toshiba Medical Supply Co., Ltd.). After 4 to 5 hours had elapsed, the cells were collected, and the nucleoprotein was extracted therefrom in a manner known per se in the art. From the resulting nucleoprotein, the activated NF-κB was detected in accordance with the gel shift assay. The amount of the NF-κB was determined by measuring the radioactive value of the NF-κB band with the use of a bioimaging analyzer “BAS 2000” (ex Fuji Film Co., Ltd.).
The inhibition ratio of the activation of the NF-κB of the test compounds was calculated from the below-described formula (1).
Inhibition ratio of NF-κB activation (%)={1−(A1-A3)/(A2-A3)}×100 (1)
A1: radioactive value of the NF-κB upon addition of a test compound
A2: radioactive value of NF-κB when a test compound is not added
A3: radioactive value of NF-κB when a test compound is not added and is not exposed to ultraviolet rays.

Hairless mice (SKH-1) [1] = experiment: Test on inhibiting function of wrinkles formation induced by ultraviolet rays (No. 2), Components (A) and (B) in combination; assay type: in vivo, mouse; parameters: scale not given here; details: 10% alone
Protocol: (§2) Hairless mice (SKH-1, female, 5-6 weeks old) were exposed to ultraviolet rays (UVB) three times/week (Monday, Wednesday and Friday) for 5 weeks, each at 50 to 100 mJ/cm^2 by using the above-described “Dermaray M-DMR-80” (ex Toshiba Medical Supply Co., Ltd.). The test compound (N,N′-diacetyl-L-cystine dimethyl ester) was dissolved in a mixed solvent of propylene glycol, ethanol and water, and was applied to the back portion of each of the mice in an amount of 100 μl, 30 to 60 minutes before exposure to ultraviolet rays, just after the completion of the exposure, and on the days free from exposure to ultraviolet rays (Sunday, Tuesday, Thursday and Saturday). From two weeks after the exposure had started, the wrinkles formed on the back portion of each mouse were evaluated once a week based on the below-described standards, and they were indicated as scores. In addition, the function of the inventive compound for inhibiting wrinkle formation induced by ultraviolet rays was judged based on the below-described judging standards.
Test on Inhibiting Function of Wrinkles Formation Induced by Ultraviolet Rays (No. 2)
Function of suppressing ultraviolet ray-induced wrinkles formation by the synergistic effects when Components (A) and (B) were used in combination, was judged in a similar manner to Test Example 2. Fifteen to twenty mice were divided into 4 groups, that is, a 1st group to which a mixed solvent of propylene glycol, ethanol and water was to be applied, a 2nd group to which a solution of only Component (A) dissolved in the above-described solvent was to be applied, a 3rd group to which a solution of only Component (B) dissolved in the above-described solvent was to be applied, and a 4th group to which a solution of both Components (A) and (B) dissolved in the above-described solvent was to be applied. An average score of each group was determined.

Hairless mice (SKH-1) [2] = experiment: Test on suppressing function of wrinkles formation induced by ultraviolet rays (No. 1); assay type: in vivo, mouse; details: for Wrinkle score, individual mouse / Wrinkle score, Average: 10% applied; for Wrinkle score, individual mouse: score 0 to 5
Protocol: Test on Suppressing Function of Wrinkles Formation Induced by Ultraviolet Rays (No. 1)
as §2

AP-1 = experiment: Test on the function of inhibiting the AP-1 activation induced by ultraviolet rays (gel shift assay); assay type: cell-based, human; details: single compound
Protocol: Test on the Function of Inhibiting the AP-1 Activation Induced by Ultraviolet Rays.
as §1
AP-1 activation inhibiting ratio (%)={1−(B1-B3)/(B2-B3)}×100 (2)
B1: radioactive value of the AP-1 band upon addition of a test compound.
B2: radioactive value of the AP-1 band when a test compound is not added.
B3: radioactive value of the AP-1 band when a test compound is not added and is not exposed to ultraviolet rays.

CCOC(=O)[C@@H](N)CS [L-cysteine ethyl ester] was tested, and the “Toxicity expressed (inhibition ratio)” value (human epidermal cells; addition concentration 5 mM, NF-κB test) was “Toxity”, the “Inhibition ratio (%) of NF-κB activation” value (NF-κB; addition concentration 0.5 mM) was 60% and the “Inhibition ratio (%) of NF-κB activation” value (NF-κB; addition concentration 1 mM) was 61%.

In the case of COC(=O)[C@H](CSSC[C@H](NC(C)=O)C(=O)OC)NC(C)=O [N,N′-diacetyl-L-cystine dimethyl ester], the “Wrinkle score (group average)” value (Hairless mice (SKH-1) [1]; 4th week) is reported as 5.0 and 3.0 and 2.5, the “Wrinkle score (group average)” value (Hairless mice (SKH-1) [1]; 5th week) is reported as 4.0 and 2.0 and the “Wrinkle score, individual mouse” value (Hairless mice (SKH-1) [2]; 2nd week of UVB exposure) is reported as 2 and 1 (4×) and 0 and 3. The “Wrinkle score, Average” value (Hairless mice (SKH-1) [2]; 2nd week, solvent group 2.6) was 1.3, the “Wrinkle score, individual mouse” value (Hairless mice (SKH-1) [2]; 3rd week of UVB exposure) was 2 (5×) and 3 and 1 and the “Wrinkle score, Average” value (Hairless mice (SKH-1) [2]; 3rd week, solvent group 3.6) was 2.0. The “Wrinkle score, individual mouse” value (Hairless mice (SKH-1) [2]; 4th week of UVB exposure) was 3 (3×) and 5 (2×) and 2 and 4, the “Wrinkle score, Average” value (Hairless mice (SKH-1) [2]; 4th week, solvent group 4.0) was 3.6 and the “Wrinkle score, individual mouse” value (Hairless mice (SKH-1) [2]; 5th week of UVB exposure) was 2 (3×) and 3 (3×) and 4. The “Wrinkle score, Average” value (Hairless mice (SKH-1) [2]; 5th week, solvent group 4.4) was 2.7, the “Effect on wrinkle formation induced by ultraviolet rays (in words)” value (Hairless mice (SKH-1) [2]; summary of Table 3) was “exhibited effects for retarding and alleviating the wrinkle formation induced by ultraviolet rays” and the “AP-1 activation Inhibiting ratio (%)” value (AP-1; 10 μM) was 4%. For the same compound, the “Inhibition ratio (%) of NF-κB activation” value (NF-κB; addition concentration 0.01 mM) was 47% and the “Inhibition ratio (%) of NF-κB activation” value (NF-κB; addition concentration 0.1 mM) was 86%.

With CC1=C(/C=C/C(C)=C/C=C/C(C)=C/C=C/C=C(C)/C=C/C=C(C)/C=C/C2=C(C)C(=O)[C@@H](O)CC2(C)C)C(C)(C)C[C@H](O)C1=O [astaxantin] the “Toxicity expressed (in inhibiting ratio column)” value (human epidermal cells; 100 μM, AP-1 test) was “Toxicity”, the “AP-1 activation Inhibiting ratio (%)” value (AP-1; 1 μM) was −54% and the “AP-1 activation Inhibiting ratio (%)” value (AP-1; 10 μM) was 0%.
